Results published in US10215749B2, “Ported parallel plate flow chamber and methods for use thereof” (priority 2013, dated 2019).

Tested on: Human Aortic Endothelial Cells
Test: Gene expression differences (Affymetrix PRIMEVIEW microarray) under shear stress conditions with PI-103 treatment in a flow chamber
Assay type: cell-based
Protocol: Cells were cultured on a collagen I-coated growth surface under static conditions (no flow) until confluency was reached. Cells were then either exposed to fluid flow in a flow chamber at 0.2 or 1.0 Pa for 20 hours, or left in static culture for the same amount of time. At 20 hours, RNA was isolated from the cells using an Ambion MIRVANA™ RNA isolation kit (Life Technologies, Foster City Calif., United States of America) and processed for analysis on Affymetrix PRIMEVIEW™ arrays (Affymetrix, Inc., Santa Clara, Calif., United States of America). Three experiments were performed for each condition, providing replicates for microarray analysis.
Gene expression differences in Human Aortic Endothelial Cells were also tested under different shear stress conditions, using a flow chamber device, in the presence or absence of the PI3K/Akt and mTOR inhibitor PI-103 (3-[4-(4-morpholinyl)pyrido[3′,2′:4,5]furo[3,2-d]pyrimidin-2-yl]-phenol); CAS No. 371935-74-9) at a concentration of 100 nM.
Cells were grown on a collagen-I coated growth surface and treated with 100 nM PI-103 in the presence of flow. For the 4 hour time point, cells were exposed to fluid flow for 16 hours and treated with PI-103 for the last 4 hours in the presence of flow. Cells were also treated with PI-103 for the entire duration of flow (20 hours). Data was generated using RNA extracted as described in Example 1, and analyzed on Affymetrix PRIMEVIEW™ arrays (Affymetrix, Inc.,). Three experiments were performed for each condition, providing replicates for microarray analysis.

Oc1cccc(-c2nc(N3CCOCC3)c3oc4ncccc4c3n2)c1 [PI-103, 3-[4-(4-morpholinyl)pyrido[3′,2′:4,5]furo[3,2-d]pyrimidin-2-yl]-phenol]
No. of Genes Changed (0.2 Pa shear stress, 100 nM PI-103, 4 hr drug exposure, vs non-treated cells under same flow): 830 | No. of Genes Changed (0.2 Pa shear stress, 100 nM PI-103, 20 hr drug exposure, vs non-treated cells under same flow): 113 | No. of Genes Changed (1.0 Pa shear stress, 100 nM PI-103, 4 hr drug exposure, vs non-treated cells under same flow): 1563 | No. of Genes Changed (1.0 Pa shear stress, 100 nM PI-103, 20 hr drug exposure, vs non-treated cells under same flow): 119 | No. of Genes Changed (No Shear (static), 100 nM PI-103, 4 hr drug exposure, vs non-treated cells under same condition): 130 | No. of Genes Changed (No Shear (static), 100 nM PI-103, 20 hr drug exposure, vs non-treated cells under same condition): 159
